In data set [1] the test system is KRAS wildtype CRC cells SW48. In words: Apoptosis, Annexin V/PI double staining. Format: cell-based, human. To be noted: 2.5 mM, 5 mM and 10 mM, 24 h. Here is the method: (§1) Annexin V/PI double staining was used on the KRAS wildtype cell SW48 and KRAS (G13D) mutation cells LoVo to detect the effect of metformin on the apoptosis of colorectal cancer cells.
(§2) 1) The cells were inoculated on a 6-well plate and subjected to adherence growth for 12 h, starvation treatment over the night, and treated with the addition of an agent for 24 h, then the cells were digested by EDTA-free trypsin and washed for once with PBS without immobilization.
(§3) 2) The cells were resuspended with the addition of 300 μl Binding Buffer, then 3 μl Annexin V-FITC and 3 μl Propidium Iodide (PI) were added and mixed well for incubation for 30 min in the dark at room temperature, then the cells were determined by a flow cytometry.
(§4) 3) Flow cytometry detection of antibodies: apoptosis kit (A211-02) was purchased from KeyGEN; the detection kit (558662) for cell cycle PI simple staining was purchased from BD company.

Data set [2] deals with KRAS mutation CRC cells LoVo. In words: Apoptosis, Annexin V/PI double staining. Format: cell-based, human. Particulars: 2.5 mM, 5 mM and 10 mM, 24 h. Here is the method: as §1, §2, §3, §4
The subject of data set [3] is 4E-BP1 phosphorylation in LoVo cell line with knock-down KRAS protein. In words: Western blot of signaling pathways. The class given is cell-based, human. Particulars: FIG. 9E. The procedure:
(§5) Western blot was used to detect the change of metformin on the related molecules of sroliferative signaling pathways MEK/ERK/cyclin D1/RB and PI3K/AKT/mTOR/4E-BP1, which clarifies the mechanism of metformin in inhibiting the proliferation of KRAS mutation CRC cells.
(§6) 1) Cells were inoculated on a culture dish and cultured to 60% of fusion degree, and treated with the addition of an agent for 24 h.
(§7) 2) Protein was collected, and washed with PBS for 3 times, then added with 100 μl 1 RSDS buffer solution (100 mmol/1 Tris-Cl pH6.8, 2% SDS, 10% glycerinum), and at this time, the cell lysis solution was sticky.
(§8) 3) The cell lysis solution was collected into a 0.5 ml centrifugal tube with a scraper, and cooked for 30 min at 100° C.
(§9) 4) The total protein extractive in the cells was subjected to protein quantification according to a BCA kit process (BIO-RAD company).
(§10) 5) The sample was treated according to a ratio of 9 μl denatured protein sample: 1 μl denatured buffer solution (β-mercaptoethanol (BME), 0.4% Bromphenol Blue), and boiled for 30 min at 100° C. for further use.
(§11) 6) A prepared SDS-PAGE gel (10% separation gel and 5% stacking gel) was taken; samples were added with 40 ug/well, and subjected gel electrophoresis for 30 min at 80V, and gel electrophoresis for 90 min at 120V. […]
A general note: A western blot detects proteins with antibodies after separation by electrophoresis.

In data set [4] the test system is cyclinD1/RB and AKT/mTOR/4E-BP1 signaling pathways in KRAS (G13D) mutation SW48 cell line. In words: Western blot of signaling pathways. Particulars: FIG. 9D. Format: cell-based, human. Here is the method:
as §5, §6, §7, §8, §9, §10, §11

Data set [5] deals with KRAS (G13D) mutation cells constructed via the CRISPR/Cas9 system. The data set is described as follows: Concentration of metformin in cells by mass spectrometry. Format: cell-based, human. To be noted: compared with the control cell, FIG. 11C. An excerpt: (§12) The increase of concentration of metformin in KRAS mutation cells was verified by using the KRAS (G13D) mutation cells constructed via the CRISPR/Cas9 system and the LoVo cell line with stable knock-down KRAS.
(§13) Metformin was used to detect the KRAS (G13D) mutation cells constructed via the CRISPR/Cas9 system and the LoVo cell line with stable knock-down KRAS to collect cell lysis solution at different time points, and the concentration of metformin in the cells was detected by mass spectrometry.

Data set [6] has as its system LoVo cell line with stable knock-down KRAS. Described as above. The class given is cell-based, human. To be noted: relative to LoVo, FIG. 11D.
From the text: as §12, §13

For data set [7], the system named is ERK and AKT signaling pathways of KRAS mutation CRC cells in PDX tumor tissues. In words: Western blot of PDX tumor tissues. Format: in vivo, BALB/c nude mice. To be noted: FIG. 9F. An excerpt:
(2) Tumor tissues from PDX animals were taken and homogenated to extract protein for WB.

Data set [8] relates to LoVo cell line with knock-down KRAS, TET1/2 interfered. The data set is described as follows: Proliferation with TET1/2 interfered. Particulars: MATE1 down-regulated once again, FIG. 16G. Format: cell-based, human.
The test system of data set [9] is LoVo cell line with knock-down KRAS protein. The data set is described as follows: Cell viability in KRAS knock-down cells. Format: cell-based, human. To be noted: relative to LoVo, FIG. 8D.
Description: The cells were inoculated on a plate according to the concentration of 5000 cells/well (48-well plate, 200 μl per well). The cells were treated with different ways according to the experimental requirements, and 10 μl CCK8 solution was added after a period of time. The cells were incubated for 1 h in an incubator; 200 μl supernatant were absorbed into a 96-well ELISA plate to determine OD450 with a microplate reader.
2) LoVo cells were subcultured to a 6-well plate (about 1×10^5/well), when cells were subjected to adherence growth, and the degree of cell fusion was not greater than 50%, fresh culture solution was replaced ahead of 2 h, and 10 μg/mL lentivirus infection enhancer polybrene was added. Multiplicity of Infection (MOI) of LoVo was about 20; lentivirus was added according to the formula: adding amount of lentivirus per well (μl)=MOI×cell population/titer (TU/ml)×1000. The culture solution was replaced after 16-18 h, and 1 μM puromycin was conventionally added for screening the cell line whose RNA stable expression was interfered by KRAS.
For data set [10], the system named is KRAS wildtype CRC cells SW48. In words: Proliferation detection (Edu method). Particulars: FIGS. 8A-B. Format: cell-based, human. The procedure: (§14) Edu was used to detect the ratio of proliferative cells, a plate clone formation experiment and PI/Rnase simple staining were used to detect the distribution of cell cycles, thus making the effect of metformin on the proliferation of CRC cells clear.
(§15) 1) Cell treatment by Edu: cells were cultured in a culture dish (covered with a sterilized cover glass), and subjected adherence growth for 12 h, and starvation treatment over the night, and treated with the addition of an agent for the corresponding time, and then added with EdU (final concentration: 10 μM) at the last 2-6 h (EdU treatment time was determined according to the cell growth rate).
(§16) 2) Immobilization: 4% paraformaldehyde was added according to 1 mL/well to immobilize the cells for 15 min at room temperature.
(§17) 3) Slide washing: 3% BSA (dissolved by PBS) was used according to 1 mL/well for washing for twice.
(§18) 4) Rupture of membrane: the cells were treated by 0.5% TritonX-100 according to 1 mL/well for 20 min at room temperature.
(§19) 5) Slide washing: the same as the step 3).
(§20) 6) Addition of a ClickiT reaction mixture: the reaction mixture was added per […] in the dark for 30 min at room temperature. […]
(§21) 11) The slide was observed under a full-automatic positive fluorescence microscope to analyze the result, and shoot and recorded (100×, 200×, 400×, the original image was kept).

Data set [11] concerns KRAS mutation CRC cells LoVo. In words: Proliferation detection (Edu method). The class given is cell-based, human. To be noted: FIGS. 8A-B. Here is the method:
as §14, §15, §16, §17, §18, §19, §20, §21

Consider `CN(C)C(=N)N=C(N)N` [metformin], for which the apoptosis result in data set [1] and in data set [2] was “do not accelerate the apoptosis” each time. In addition, the “inhibiting effect on LoVo protein and 4E-BP1 phosphorylation after interference of KRAS (G13D) expression” value in data set [3] is reported as “down-regulate the inhibiting effect”. For the same compound, the “change of the cyclinD1/RB and AKT/mTOR/4E-BP1 signaling pathways” value in data set [4] is listed as “consistent with the KRAS mutation CRC cells LoVo”. Also, the “concentration of metformin in cells” value in data set [5] is “obviously increased concentration”; in [6], “decreases obviously”. In addition, the “ERK and AKT signaling pathways in PDX tumor tissues” value in [7] was “inhibits”. Also, the “inhibiting effect on proliferation of tumor cells with TET1/2 interfered” value in [8] was “accelerating the inhibiting effect”. For the same compound, in data set [9], the “inhibiting effect on cell viability after interference of KRAS (G13D) expression” value was “down-regulate the inhibiting effect”. Besides, the “ratio of proliferating-phase cells (EdU positive)” value is listed as “no obvious effect” in data set [10] and “decreases” in data set [11].

Values taken from patent publication US20220125877A1, “METHOD FOR TREATING COLORECTAL CANCER” (SUN YAT-SEN UNIVERSITY, priority 2019, published 2022).
